Tests used:
Assay type in all cases: in vivo
[1] = test system: ryegrass, Italian (Italian ryegrass, Lolium multiflorum); experiment: Test A preemergence; conditions: Lolium multiflorum, pre-emergence, 240 h, preemergence, 0 to 100 scale where 0 is no effect and 100 is complete control, read-out: Ryegrass, Italian plant response rating; for pest or weed control at 125 g/ha: 125 g ai/ha, visual injury rating, approximately 10 d; for pest or weed control at 500 g/ha: 500 g ai/ha
In short: (§1)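 Treatment is preemergence as a directed soil spray after planting, or postemergence at the one- to two-leaf stage, with test chemical in a non-phytotoxic solvent mixture plus surfactant. Plants stay in the greenhouse about 10 d before visual injury scoring on a 0 to 100 scale versus untreated controls.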

[2] = test system: barnyardgrass (Echinochloa crus-galli); experiment: Test A preemergence; conditions: Echinochloa crus-galli, pre-emergence, 240 h, preemergence, 0 to 100 scale where 0 is no effect and 100 is complete control, read-out: Barnyardgrass plant response rating; for pest or weed control at 125 g/ha: 125 g ai/ha, visual injury rating, approximately 10 d; for pest or weed control at 500 g/ha: 500 g ai/ha
In short: as §1

[3] = test system: giant foxtail (Setaria faberii); experiment: Test A preemergence; conditions: Setaria faberi, pre-emergence, 240 h, preemergence, 0 to 100 scale where 0 is no effect and 100 is complete control, read-out: Foxtail, Giant plant response rating; for pest or weed control at 125 g/ha: 125 g ai/ha, visual injury rating, approximately 10 d; for pest or weed control at 500 g/ha: 500 g ai/ha
In short: as §1

[4] = test system: ragweed (common ragweed, Ambrosia elatior); experiment: Test A preemergence; conditions: Ambrosia artemisiifolia, pre-emergence, 240 h, preemergence, 0 to 100 scale where 0 is no effect and 100 is complete control, read-out: Ragweed plant response rating; for pest or weed control at 125 g/ha: 125 g ai/ha, visual injury rating, approximately 10 d; for pest or weed control at 500 g/ha: 500 g ai/ha
In short: as §1

Kochia (Kochia scoparia) = experiment: Test A preemergence; conditions: Bassia scoparia, pre-emergence, 240 h, preemergence, 0 to 100 scale where 0 is no effect and 100 is complete control, read-out: Kochia plant response rating; for pest or weed control at 125 g/ha: 125 g ai/ha, visual injury rating, approximately 10 d; for pest or weed control at 500 g/ha: 500 g ai/ha
In short: as §1

[5] = test system: pigweed (Amaranthus retroflexus); experiment: Test A preemergence; conditions: Amaranthus retroflexus, pre-emergence, 240 h, preemergence, 0 to 100 scale where 0 is no effect and 100 is complete control, read-out: Pigweed plant response rating; for pest or weed control at 125 g/ha: 125 g ai/ha, visual injury rating, approximately 10 d; for pest or weed control at 500 g/ha: 500 g ai/ha
[6] = test system: ducksalad (Heteranthera limosa); experiment: Test B flooded paddy test; conditions: Heteranthera limosa, 250 g ai/ha, Flood; 0 to 100 scale where 0 is no effect and 100 is complete control; read-out: Ducksalad plant response rating
In short: (§2)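 Compound goes directly into floodwater once pots are flooded 3 cm above soil, targeting plants at two leaves; the water depth is then held for the test duration. Plants sit 13–15 d in a greenhouse and are rated visually, 100 denoting complete control.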

rice (Oryra sativa) = experiment: Test B flooded paddy test; conditions: Oryza sativa, 250 g ai/ha, Flood; 0 to 100 scale where 0 is no effect and 100 is complete control; read-out: Rice plant response rating
In short: as §2

[7] = test system: barnyardgrass (Echinochloa crus-galli); experiment: Test B flooded paddy test; conditions: Echinochloa crus-galli, 250 g ai/ha, Flood; 0 to 100 scale where 0 is no effect and 100 is complete control; read-out: Barnyardgrass plant response rating
In short: as §2

[8] = test system: sedge, umbrella (small-flower umbrella sedge, Cyperus difformis); experiment: Test B flooded paddy test; conditions: Cyperus difformis, 250 g ai/ha, Flood; 0 to 100 scale where 0 is no effect and 100 is complete control; read-out: Sedge, Umbrella plant response rating
In short: as §2

[9] = test system: wheat (Triticum aestivum); experiment: Test A postemergence; conditions: Triticum aestivum, post-emergence, 240 h, 125 g ai/ha, postemergence, visual injury vs untreated controls after approx. 10 d; 0 = no effect, 100 = complete control; read-out: Wheat plant response rating (0 to 100 scale)
In short: as §1

[10] = test system: barnyardgrass (Echinochloa crus-galli); experiment: Test A postemergence; conditions: Echinochloa crus-galli, post-emergence, 240 h, postemergence; for pest or weed control at 125 g/ha: 125 g ai/ha, visual injury vs untreated controls after approx. 10 d, 0 = no effect, 100 = complete control, read-out: Barnyardgrass plant response rating (0 to 100 scale); for pest or weed control at 500 g/ha: 500 g ai/ha, 0 to 100 scale, 0 is no effect, 100 is complete control, read-out: Barnyardgrass plant response rating
In short: as §1

[11] = test system: giant foxtail (Setaria faberii); experiment: Test A postemergence; conditions: Setaria faberi, post-emergence, 240 h, postemergence; for pest or weed control at 125 g/ha: 125 g ai/ha, visual injury vs untreated controls after approx. 10 d, 0 = no effect, 100 = complete control, read-out: Foxtail, Giant plant response rating (0 to 100 scale); for pest or weed control at 500 g/ha: 500 g ai/ha, 0 to 100 scale, 0 is no effect, 100 is complete control, read-out: Foxtail, Giant plant response rating
In short: as §1

[12] = test system: Galium (catchweed bedstraw, Galium aparine); experiment: Test A postemergence; conditions: Galium, post-emergence, 240 h, postemergence; for pest or weed control at 125 g/ha: 125 g ai/ha, visual injury vs untreated controls after approx. 10 d, 0 = no effect, 100 = complete control, read-out: Galium plant response rating (0 to 100 scale); for pest or weed control at 500 g/ha: 500 g ai/ha, 0 to 100 scale, 0 is no effect, 100 is complete control, read-out: Galium plant response rating
In short: as §1

Row | Compound | pest or weed control at 125 g/ha [1] | pest or weed control at 500 g/ha [1] | pest or weed control at 125 g/ha [2] | pest or weed control at 500 g/ha [2] | pest or weed control at 125 g/ha [3] | pest or weed control at 500 g/ha [3] | pest or weed control at 125 g/ha [4] | pest or weed control at 500 g/ha [4] | pest or weed control at 125 g/ha (Kochia (Kochia scoparia)) | pest or weed control at 500 g/ha (Kochia (Kochia scoparia)) | pest or weed control at 125 g/ha [5] | pest or weed control at 500 g/ha [5] | pest or weed control at 250 g/ha [6] | pest or weed control at 250 g/ha (rice (Oryra sativa)) | pest or weed control at 250 g/ha [7] | pest or weed control at 250 g/ha [8] | plant injury at 125 g/ha [9] | pest or weed control at 125 g/ha [10] | pest or weed control at 500 g/ha [10] | pest or weed control at 125 g/ha [11] | also measured
1 | CN1C[C@H](c2ccc(C(F)(F)F)cc2)[C@@H](C(=O)Nc2cccc(Cl)c2F)C1=O [Compound 1238] | 0% | 50% | 80% | 90% | 90% | 90% | 0% | 50% | 60% | 60% | 0% | 60% | 0% | 0% | 0% | 0% | 0% | 50% | 80% | 60% | pest or weed control at 500 g/ha [11]: 80%; pest or weed control at 125 g/ha [12]: 20%; pest or weed control at 500 g/ha [12]: 50%
2 | O=C1NC[C@H](c2ccc(C(F)(F)F)cc2)C1C(=O)Nc1ccccc1CO (stereo partly shown) [Compound 1242] | 0% | 0% | 20% | 60% | 30% | 80% | 0% | 0% | 0% | 0% | 0% | 0% | 75% | 0% | 0% | 0% | 0% | 20% | 40% | 20% | pest or weed control at 500 g/ha [11]: 50%; pest or weed control at 125 g/ha [12]: 0%; pest or weed control at 500 g/ha [12]: 20%

Reference: US12077503B2, “Substituted cyclic amides and their use as herbicides” (FMC CORPORATION, priority 2015, dated 2024)
